The values below come from US20240180898A1, “USE OF AMINOTHIAZOLE DERIVATIVE IN TREATMENT OF IMMUNE INFLAMMATION” (INNAMUNE PHARMACEUTICAL CO. LTD., priority 2021, published 2024).

The test system of the test is macrophages derived from mouse bone marrow. Kind of test: LPS-induced secretion of inflammatory factors from macrophages, ELISA of supernatant. It is filed as cell-based. As to conditions: 30 umol/L 2 hours before LPS 500 ng/ml for 24 hours; FIG. 2. As to the method: macrophage grouping (in vitro):
Cultivate macrophages derived from mouse bone marrow in vitro.
The experiment was divided into 8 groups, namely: • Control group (untreated mouse bone marrow-derived macrophages), • LPS group (500 ng/ml LPS stimulated macrophages for 24 hours), • LPS+TJ-2 group (2 hours before LPS stimulation, administer 30 umol/L TJ-2 drug stimulation), • LPS+TJ-5 group (2 hours before LPS stimulation, administer 30 umol/L TJ-5 drug stimulation), • LPS+TJ-8 group (2 hours before LPS stimulation, administer 30 umol/L TJ-8 drug stimulation), • LPS+TJ-9 group (2 hours before LPS stimulation, administer 30 umol/L TJ-9 drug stimulation), • LPS+TJ-11 group (2 hours before LPS stimulation, administer 30 umol/L TJ-11 drug stimulation), • and LPS+TJ-12 group (2 hours before LPS stimulation, administer 30 umol/L TJ-12 drug stimulation).
After 24 hours of LPS stimulation, the cell culture supernatant was removed and ELISA was performed to detect the concentration of various inflammatory factors in the supernatant.

Regarding `O=C(CN1CCN(Cc2ccccc2)CC1)Nc1nc(-c2ccccc2)cs1` [INNA1608, 2-(4-benzylpiperazine-1-yl)-N-(4-phenylthiazole-2-yl) acetamide], the “inhibitory effect on inflammatory factors compared among the compounds” value (“inhibitory effect … compared among the compounds” below) is reported as “have the same inhibitory effect on inflammatory factors” and the “secretion of various inflammatory factors in macrophages (IL-1β, Il-6, TNF-α, IL-18, IL-17)” value (from here on “secretion”) is reported as “can inhibit the secretion of various inflammatory factors in macrophages”.
On to `Cc1cccc(-c2csc(NC(=O)CN3CCN(Cc4ccccc4)CC3)n2)c1` [INNA1612, 2-(4-benzyl-base)piperazine-1-N-(4-(3-methylphenyl)thiazole-2-base) acetamide], for which the “inhibitory effect … compared among the compounds” value is given as “have the same inhibitory effect on inflammatory factors” and the “secretion” value is listed as “can inhibit the secretion of various inflammatory factors in macrophages”.
As to `COc1cccc(-c2csc(NC(=O)CCN3CCN(Cc4ccccc4)CC3)n2)c1` [INNA1609, 3-(4-benzylpiperazine-1-yl)-N-(4-(3-methoxyphenyl)thiazole-2-yl) propionamide], the “inhibitory effect … compared among the compounds” value was “have the same inhibitory effect on inflammatory factors” and the “secretion” value was “can inhibit the secretion of various inflammatory factors in macrophages”.
In the case of `Cc1ccc(N2CCN(CC(=O)Nc3nc(-c4ccccc4)cs3)CC2)cc1` [INNA1602, 2-(4-(4-methylphenyl)piperazine-1-yl) -N-(4-phenylthiazole-2-yl) acetamide], the “inhibitory effect … compared among the compounds” value is given as “have the same inhibitory effect on inflammatory factors” and the “secretion” value was “can inhibit the secretion of various inflammatory factors in macrophages”.
Regarding `Cc1cccc(-c2csc(NC(=O)CCN3CCN(c4cccc(C)c4)CC3)n2)c1` [INNA1611], the “inhibitory effect … compared among the compounds” value is recorded as “have the same inhibitory effect on inflammatory factors” and the “secretion” value is recorded as “can inhibit the secretion of various inflammatory factors in macrophages”.
